From PubChem BioAssay AID248 (DTP/NCI, 2004)
Values joined by “and” are separate entries in the source; they are usually repeats but may differ in a detail not shown here. Equal values may be shown once. Toxic doses and inconclusive results are not listed. No stated cut-off is given here; in the data, active means T/C of 150% or more; inactive means T/C below 125%.

Test system: L1210 leukemia ip in BDF1 mice, survival T/C
Assay: NCI In Vivo Anticancer Drug Screen. Data for tumor model L1210 Leukemia (intraperitoneal) in B6D2F1 (BDF1) mice
Settings: endpoint: mean survival time, higher = longer survival
How it was run: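 Mice bearing the transplanted tumor received compound or vehicle. Survival of the treated group was divided by that of the vehicle-treated control group to give the ratio.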

[1] = dose: 100.0 mg/kg/injection, schedule: Q01DX001 (ip), vehicle: saline with Tween-80
[2] = dose: 200.0 mg/kg/injection, schedule: Q01DX001 (ip), vehicle: saline with Tween-80
[3] = dose: 400.0 mg/kg/injection, schedule: Q01DX001 (ip), vehicle: saline with Tween-80
[4] = dose: 100.0 mg/kg/injection, schedule: Q01DX009 (ip), vehicle: saline with Tween-80
[5] = dose: 100.0 mg/kg/injection, schedule: Q04DX002 (ip), vehicle: saline with Tween-80
[6] = dose: 100.0 mg/kg/injection, schedule: Q04DX003 (ip), vehicle: saline with Tween-80
[7] = dose: 200.0 mg/kg/injection, schedule: Q01DX009 (ip), vehicle: saline with Tween-80
[8] = dose: 200.0 mg/kg/injection, schedule: Q04DX002 (ip), vehicle: saline with Tween-80
[9] = dose: 200.0 mg/kg/injection, schedule: Q04DX003 (ip), vehicle: saline with Tween-80
[10] = dose: 400.0 mg/kg/injection, schedule: Q04DX002 (ip), vehicle: saline with Tween-80
[11] = dose: 100.0 mg/kg/injection, schedule: Q01DX001 (ip), vehicle: carboxymethylcellulose (CMC)
[12] = dose: 200.0 mg/kg/injection, schedule: Q01DX001 (ip), vehicle: carboxymethylcellulose (CMC)
[13] = dose: 400.0 mg/kg/injection, schedule: Q01DX001 (ip), vehicle: carboxymethylcellulose (CMC)
[14] = dose: 100.0 mg/kg/injection, schedule: Q01DX001 (ip), vehicle: Klucel (hydroxypropylcellulose) (HPC)
[15] = dose: 200.0 mg/kg/injection, schedule: Q01DX001 (ip), vehicle: Klucel (hydroxypropylcellulose) (HPC)
[16] = dose: 50.0 mg/kg/injection, schedule: Q04DX003 (ip), vehicle: saline with Tween-80
[17] = dose: 25.0 mg/kg/injection, schedule: Q01DX009 (ip), vehicle: Klucel (hydroxypropylcellulose) (HPC)
[18] = dose: 50.0 mg/kg/injection, schedule: Q01DX009 (ip), vehicle: Klucel (hydroxypropylcellulose) (HPC)
[19] = dose: 25.0 mg/kg/injection, schedule: Q01DX009 (ip), vehicle: saline

Measured: T/C

c1ccc(-c2c(-c3ccc4c(c3)CCCC4)c(-c3ccccc3)c3c(c2-c2ccccc2)-c2cccc4cccc-3c24)cc1
inactive: [1] 87 % of control | [2] 87 % of control | [3] 100 % of control

O=C(O)CC(NC(=O)OCc1ccccc1)c1ccccc1 (stereo not given)
inactive: [1] 92 % of control | [4] 93 % of control and 102 % of control | [5] 110 % of control | [6] 97 % of control | [2] 90 % of control | [7] 98 % of control and 91 % of control | [8] 95 % of control | [9] 92 % of control | [3] 92 % of control | [10] 100 % of control | dose: 400.0 mg/kg/injection, schedule: Q04DX003 (ip), vehicle: saline with Tween-80 93 % of control

N#CC1C2CCC(C2)C1CCCNCCCC1C2CCC(C2)C1C#N (stereo not given)
inactive: dose: 100.0 mg/kg/injection, schedule: Q04DX002 (ip), vehicle: saline 97 % of control | dose: 200.0 mg/kg/injection, schedule: Q04DX002 (ip), vehicle: saline 104 % of control

O=C(CI)OCCCl
inactive: dose: 12.5 mg/kg/injection, schedule: Q01DX009 (ip), vehicle: other 94 % of control | dose: 25.0 mg/kg/injection, schedule: Q01DX009 (ip), vehicle: other 97 % of control | dose: 50.0 mg/kg/injection, schedule: Q01DX009 (ip), vehicle: other 97 % of control

S=c1nc[nH]c2[nH]ncc12
inactive: [11] 108 % of control | [12] 93 % of control | [13] 93 % of control

CCOC(=O)c1ccc(Nc2sc(C(=O)c3ccc(Br)cc3)c(N)c2C#N)cc1
inactive: [5] 102 % of control | [8] 94 % of control | [10] 88 % of control

CC(=O)Nc1ccc(CCCCc2c(C)nc(NC(C)=O)[nH]c2=O)cc1
inactive: [14] 91 % of control | [15] 89 % of control

CCCCCCCCCCCCCC=C(C)C
inactive: [1] 94 % of control | [2] 94 % of control | [3] 87 % of control

Oc1ccccc1CNc1nn[nH]n1
inactive: [14] 101 % of control | [15] 108 % of control | dose: 400.0 mg/kg/injection, schedule: Q01DX001 (ip), vehicle: Klucel (hydroxypropylcellulose) (HPC) 103 % of control

Nc1ccccc1CCc1ccccc1N
inactive: [4] 98 % of control | [7] 98 % of control | dose: 400.0 mg/kg/injection, schedule: Q01DX009 (ip), vehicle: saline with Tween-80 94 % of control

Cc1cc2ccccn2c1C(=O)c1ccccc1
inactive: [11] 107 % of control | dose: 100.0 mg/kg/injection, schedule: Q01DX009 (ip), vehicle: carboxymethylcellulose (CMC) 106 % of control | dose: 100.0 mg/kg/injection, schedule: Q04DX002 (ip), vehicle: carboxymethylcellulose (CMC) 98 % of control and 102 % of control | dose: 100.0 mg/kg/injection, schedule: Q04DX003 (ip), vehicle: carboxymethylcellulose (CMC) 102 % of control | [12] 98 % of control | dose: 200.0 mg/kg/injection, schedule: Q01DX009 (ip), vehicle: carboxymethylcellulose (CMC) 96 % of control and 106 % of control | dose: 200.0 mg/kg/injection, schedule: Q04DX002 (ip), vehicle: carboxymethylcellulose (CMC) 94 % of control and 107 % of control | dose: 200.0 mg/kg/injection, schedule: Q04DX003 (ip), vehicle: carboxymethylcellulose (CMC) 102 % of control | [13] 98 % of control | dose: 400.0 mg/kg/injection, schedule: Q01DX009 (ip), vehicle: carboxymethylcellulose (CMC) 95 % of control and 102 % of control | dose: 400.0 mg/kg/injection, schedule: Q04DX002 (ip), vehicle: carboxymethylcellulose (CMC) 93 % of control and 102 % of control | dose: 400.0 mg/kg/injection, schedule: Q04DX003 (ip), vehicle: carboxymethylcellulose (CMC) 102 % of control

N#COc1cccc(OCCOc2cccc(OC#N)c2)c1
inactive: dose: 50.0 mg/kg/injection, schedule: Q01DX009 (ip), vehicle: saline with Tween-80 99 % of control | [16] 97 % of control | [1] 89 % of control | [4] 94 % of control | [6] 90 % of control | [2] 87 % of control | [7] 100 % of control | [9] 87 % of control

CC(=O)Oc1ccc2c(c1)C(=O)CCCCCC(=O)O2
inactive: [16] 95 % of control | [9] 117 % of control

C/C=C\C=N\NC(=O)CCCCCCCCCCC
inactive: [17] 105 % of control | [18] 91 % of control | dose: 100.0 mg/kg/injection, schedule: Q01DX009 (ip), vehicle: Klucel (hydroxypropylcellulose) (HPC) 100 % of control and 90 % of control

COc1cc(C(=O)NC(CCC(=O)O)C(=O)O)ccc1N(C)Cc1cnc2nc(N)nc(N)c2n1 (stereo not given)
active: dose: 6.25 mg/kg/injection, schedule: Q01DX009 (ip), vehicle: sodium bicarbonate 154 % of control | dose: 25.0 mg/kg/injection, schedule: Q01DX009 (ip), vehicle: sodium bicarbonate 178 % of control

C(=N\Nc1ccc2ccccc2n1)/c1ccccn1
inactive: dose: 9.5 mg/kg/injection, schedule: Q01DX001 (ip), vehicle: other 94 % of control | dose: 19.0 mg/kg/injection, schedule: Q01DX001 (ip), vehicle: other 103 % of control | dose: 38.0 mg/kg/injection, schedule: Q01DX001 (ip), vehicle: other 94 % of control | dose: 75.0 mg/kg/injection, schedule: Q01DX001 (ip), vehicle: other 108 % of control

CC(N)(Cc1ccc(O)c(O)c1)C(=O)O (stereo not given)
inactive: [19] 109 % of control | dose: 25.0 mg/kg/injection, schedule: Q04DX003 (ip), vehicle: saline 103 % of control | dose: 50.0 mg/kg/injection, schedule: Q01DX009 (ip), vehicle: saline 101 % of control | dose: 50.0 mg/kg/injection, schedule: Q04DX003 (ip), vehicle: saline 95 % of control | dose: 100.0 mg/kg/injection, schedule: Q01DX009 (ip), vehicle: saline 105 % of control | dose: 100.0 mg/kg/injection, schedule: Q04DX003 (ip), vehicle: saline 103 % of control | dose: 200.0 mg/kg/injection, schedule: Q01DX009 (ip), vehicle: saline 111 % of control | dose: 200.0 mg/kg/injection, schedule: Q04DX003 (ip), vehicle: saline 106 % of control | dose: 400.0 mg/kg/injection, schedule: Q01DX009 (ip), vehicle: saline 117 % of control | dose: 400.0 mg/kg/injection, schedule: Q04DX003 (ip), vehicle: saline 103 % of control

Cc1nc(Cl)c(CO)c(CO)c1O
inactive: dose: 12.5 mg/kg/injection, schedule: Q01DX009 (ip), vehicle: Klucel (hydroxypropylcellulose) (HPC) 95 % of control | [17] 98 % of control | dose: 25.0 mg/kg/injection, schedule: Q04DX003 (ip), vehicle: Klucel (hydroxypropylcellulose) (HPC) 94 % of control | [18] 92 % of control | dose: 50.0 mg/kg/injection, schedule: Q04DX003 (ip), vehicle: Klucel (hydroxypropylcellulose) (HPC) 90 % of control | dose: 100.0 mg/kg/injection, schedule: Q04DX003 (ip), vehicle: Klucel (hydroxypropylcellulose) (HPC) 106 % of control

O=P(N1CCOCC1)(N1CC1)N1CC1
inactive: dose: 2.3 mg/kg/injection, schedule: Q01DX015 (ip), vehicle: saline 103 % of control | dose: 3.5 mg/kg/injection, schedule: Q01DX015 (ip), vehicle: saline 108 % of control | dose: 5.3 mg/kg/injection, schedule: Q01DX015 (ip), vehicle: saline 114 % of control | dose: 6.2 mg/kg/injection, schedule: Q01DX001 (ip), vehicle: saline 105 % of control | dose: 9.3 mg/kg/injection, schedule: Q01DX001 (ip), vehicle: saline 107 % of control | dose: 14.0 mg/kg/injection, schedule: Q01DX001 (ip), vehicle: saline 112 % of control | [19] 116 % of control | dose: 38.0 mg/kg/injection, schedule: Q01DX015 (ip), vehicle: saline 104 % of control
active: dose: 12.5 mg/kg/injection, schedule: Q01DX009 (ip), vehicle: saline 196 % of control | dose: 14.0 mg/kg/injection, schedule: Q01DX015 (ip), vehicle: saline 210 % of control | dose: 23.0 mg/kg/injection, schedule: Q01DX015 (ip), vehicle: saline 246 % of control | dose: 33.0 mg/kg/injection, schedule: Q01DX001 (ip), vehicle: saline 157 % of control
